One block for each molecule: values may come before it.
Key:
[1] = biological target: T1, human VAP-1 (SSAO) (Homo sapiens, UniProt Q16853); test: VAP-1 Inhibition Assay; type: biochemical; settings: purified recombinantly expressed human VAP-1 (SSAO), benzylamine substrate, room temperature
T1 construct: made in house
T1 sequence (Q16853 29-763 limits assumed): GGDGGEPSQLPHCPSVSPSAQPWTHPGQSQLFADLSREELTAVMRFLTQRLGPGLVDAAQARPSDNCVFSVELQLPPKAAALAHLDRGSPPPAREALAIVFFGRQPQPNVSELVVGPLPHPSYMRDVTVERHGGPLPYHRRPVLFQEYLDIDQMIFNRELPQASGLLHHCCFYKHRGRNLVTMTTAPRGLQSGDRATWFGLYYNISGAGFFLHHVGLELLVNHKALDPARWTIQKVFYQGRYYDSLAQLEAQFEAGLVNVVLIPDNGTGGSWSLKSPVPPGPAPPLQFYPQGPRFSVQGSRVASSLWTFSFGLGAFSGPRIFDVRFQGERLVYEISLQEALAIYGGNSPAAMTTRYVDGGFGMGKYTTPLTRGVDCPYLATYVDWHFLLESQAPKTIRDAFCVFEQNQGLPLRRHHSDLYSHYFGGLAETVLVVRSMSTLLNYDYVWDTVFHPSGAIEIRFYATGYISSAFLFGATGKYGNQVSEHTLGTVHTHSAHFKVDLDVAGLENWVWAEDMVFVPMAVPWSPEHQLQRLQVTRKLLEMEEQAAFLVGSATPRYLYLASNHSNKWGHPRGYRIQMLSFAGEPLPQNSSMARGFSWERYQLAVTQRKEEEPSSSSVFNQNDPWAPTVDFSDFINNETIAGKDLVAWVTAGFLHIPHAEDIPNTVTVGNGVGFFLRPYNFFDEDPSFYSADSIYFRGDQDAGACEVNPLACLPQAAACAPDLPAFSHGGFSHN
Method: This assay is performed at room temperature with purified recombinantly expressed human VAP-1 (SSAO). Enzyme was prepared essentially as described in Ohman et al. (Protein Expression and Purification 46 (2006) 321-331). The enzyme activity is assayed with benzylamine as substrate by measuring either benzaldehyde production, using 14C-labeled substrate, or by utilizing the production of hydrogen peroxide in a horseradish peroxidise (HRP) coupled reaction. Briefly, test compounds are dissolved in dimethyl sulfoxide (DMSO) to a concentration of 10 mM. Dose-response measurements are assayed by either creating 1:10 serial dilutions in DMSO to produce a 7 point curve or by making 1:3 serial dilutions in DMSO to produce 11 point curves. The top concentrations are adjusted depending on the potency of the compounds and subsequent dilution in reaction buffer yielded a final DMSO concentration ≤2%.
Hydrogen peroxide detection: In a horseradish peroxidise (HRP) coupled reaction, hydrogen peroxide oxidation of 10-acetyl-3,7-dihydroxyphenoxazine produces resorufin, which is a highly fluorescent compound (Zhout and Panchuk-Voloshina. Analytical Biochemistry 253 (1997) 169-174; AmplexR Red Hydrogen Peroxide/peroxidise Assay kit, Invitrogen A22188). Enzyme and compounds in 50 mM sodium phosphate, pH 7.4 are set to pre-incubate in flat-bottomed microtiter plates for approximately 15 minutes before initiating the reaction by addition of a mixture of HRP, benzylamine and Amplex reagent. Benzylamine concentration is fixed at a concentration corresponding to the Michaelis constant, determined using standard procedures. Fluorescence intensity is then measured at several time points during 1-2 hours, exciting at 544 nm and reading the emission at 590 nm. For the human SSAO assay final concentrations of the reagents in the assay wells are: SSAO enzyme 1 mg/ml, benzylamine 100 μM, Amplex reagent 20 μM, HRP 0.1 U/mL and varying concentrations of test compound. The inhibition is measured as % decrease of the signal compared to a control without inhibitor (only diluted DMSO). The background signal from a sample containing no SSAO enzyme is subtracted from all data points. Data is fitted to a four parameter logistic model and IC50 values are calculated, for example by using the GraphPad Prism 4 or XLfit 4 programs.

[2] = tested on: sumatriptan-primed rats; test: stress induced allodynia in a rat model of medication overuse headache (MOH); type: in vivo; settings: bright light stress, oral 33.3 mg/ml, 3 ml/kg, measured day 21 over 5 h
Method: The effects of compounds on stress induced allodynia in a rat model of medication overuse headache (MOH) The effects of compounds on stress induced cephalic and extracephalic allodynia in sumatriptan-primed rats was tested.
Sprague Dawley rats were implanted with osmotic minipumps (model 2001; Alzet, Cupertino, Calif., USA) providing continuous infusion of sumatriptan (0.6 mg/kg/day, s.c) or vehicle (saline, 0.9% NaCl) for 7 days. Mechanical facial (FIG. 1; A) and hindpaw (FIG. 1; C) allodynia was measured during a 19 day time course.
On day 20, when mechanical thresholds are at basal levels, all rats received either 4-{5-[3-(4-Fluorophenyl)-3H-imidazo[4,5-c]pyridin-2-yl]pyridin-2-yl}morpholine (compound 4) or vehicle orally (33.3 mg/ml, Dose 3 ml/kg) and then they were exposed to bright lights for 1 h (bright light stress; BLS). Rats received a second dose of the assigned treatment in the afternoon.
On day 21 all rats received a third dose of the assigned treatment and then they were again exposed to BLS for 1 h. Mechanical facial (FIG. 1; B) and hindpaw (FIG. 1; D) allodynia was measured over a 5 h time course.
Sumatriptan-treated, but not saline-treated, rats developed generalized allodynia during minipump infusion measured in the periorbital and hindpaw regions (FIG. 1; A, C; day 6). Mechanical thresholds returned to baseline on days 10 and 19. […]

[3] = CNS penetration (brain:plasma ratio); type: in vivo; settings: rat, whole brain homogenate and plasma, intravenous; total brain:plasma ratio adjusted for plasma protein binding and brain tissue binding; read-out: unbound (free) brain:plasma ratio
Source text: Central nervous system (CNS) penetration of compounds of the invention can be determined by for example, intravenous dosing in a rat and subsequent quantitative LCMS analysis of the drug concentration in plasma and whole brain homogenate. The total brain:plasma ratio can then be calculated. This total ratio can be adjusted for plasma protein binding (PPB) and brain tissue binding (BTB) determined by standard means to give an unbound (free) brain:plasma ratio. For example, Compound 4 of the invention has an unbound (free) brain:plasma ratio of 0.72, indicating good CNS penetration of the compound.

[4] = biological target: T2, VAP-1 (Homo sapiens, UniProt Q16853); settings: known; cited from earlier work
T2 sequence (Q16853 1-763): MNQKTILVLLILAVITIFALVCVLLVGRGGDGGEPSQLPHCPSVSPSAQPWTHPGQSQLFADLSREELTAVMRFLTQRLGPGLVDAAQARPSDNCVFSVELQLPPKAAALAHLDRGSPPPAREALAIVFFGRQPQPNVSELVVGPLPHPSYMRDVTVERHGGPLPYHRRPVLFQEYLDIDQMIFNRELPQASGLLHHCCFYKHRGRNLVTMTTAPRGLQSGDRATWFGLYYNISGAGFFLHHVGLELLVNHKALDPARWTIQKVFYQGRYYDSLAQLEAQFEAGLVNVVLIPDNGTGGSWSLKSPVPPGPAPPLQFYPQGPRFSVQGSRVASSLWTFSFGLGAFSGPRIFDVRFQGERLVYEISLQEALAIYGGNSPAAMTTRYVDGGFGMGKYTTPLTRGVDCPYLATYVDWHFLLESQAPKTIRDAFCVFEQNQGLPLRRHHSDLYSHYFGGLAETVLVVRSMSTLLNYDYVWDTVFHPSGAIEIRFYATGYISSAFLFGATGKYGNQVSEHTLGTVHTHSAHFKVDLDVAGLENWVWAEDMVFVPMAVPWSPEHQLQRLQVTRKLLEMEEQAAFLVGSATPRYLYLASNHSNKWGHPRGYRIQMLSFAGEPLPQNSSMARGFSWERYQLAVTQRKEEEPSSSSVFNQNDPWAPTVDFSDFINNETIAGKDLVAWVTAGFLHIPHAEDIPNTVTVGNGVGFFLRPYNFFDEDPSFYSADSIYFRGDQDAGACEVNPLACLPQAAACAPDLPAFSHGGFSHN

[5] = tested on: sumatriptan-primed rats; settings: Kopruszinski et al, Cephalalgia, 2017; cited from earlier work
[6] = phase IIb chronic migraine study; cited from earlier work

IC50 [1]: 13 nM
unbound brain:plasma ratio (Kp,uu) [3]: 0.72
Molecule: Fc1ccc(-n2c(-c3ccc(N4CCOCC4)nc3)nc3ccncc32)cc1 [Compound 4, 4-{5-[3-(4-Fluorophenyl)-3H-imidazo[4,5-c]pyridin-2-yl]pyridin-2-yl}morpholine]
stress-induced hindpaw allodynia [2]: significantly reduced
stress-induced periorbital allodynia [2]: significantly reduced

IC50 [1]: 31 nM
Molecule: CC(=O)N1CCN(c2ccc(-c3nc4ccncc4n3-c3ccc(F)cc3)cn2)CC1 [Compound 2, 1-(4-{5-[3-(4-Fluorophenyl)-3H-imidazo[4,5-c]pyridin-2-yl]pyridin-2-yl}piperazin-1-yl)ethan-1-one]

IC50 [1]: 34 nM
Molecule: C=C(CNN)c1ccccc1 [LJP1207, reference compound]

IC50 [1]: 4 nM
Molecule: CS(=O)(=O)N1CCN(c2ccc(-c3nc4ccncc4n3-c3ccc(F)cc3)cn2)CC1 [Compound 3, 1-{5-[3-(4-Fluorophenyl)-3H-imidazo[4,5-c]pyridin-2-yl]pyridin-2-yl}-4-methanesulfonylpiperazine]

IC50 [1]: 142 nM
Molecule: C[C@@](Cc1ccc(O)c(O)c1)(NN)C(=O)O [(S)-Carbidopa, reference compound]
inhibition of VAP-1 [4]: very good inhibitors of VAP-1

Molecule: NC(CO)C(=O)NNCc1ccc(O)c(O)c1O (stereo not drawn) [benserazide, Benserazide]
inhibition of VAP-1 [4]: very good inhibitors of VAP-1

B1: TEV48125: a fully humanised CGRP antibody (antibody, chains of the INN, looked up, V domains shown)
VH: EVQLVESGGGLVQPGGSLRLSCAASGFTFSNYWISWVRQAPGKGLEWVAEIRSESDASATHYAEAVKGRFTISRDNAKNSLYLQMNSLRAEDTAVYYCLAYFDYGLAIQNYWGQGTLVTVSS
VL: EIVLTQSPATLSLSPGERATLSCKASKRVTTYVSWYQQKPGQAPRLLIYGASNRYLGIPARFSGSGSGTDFTLTISSLEPEDFAVYYCSQSYNYPYTFGQGTKLEIK
efficacy in the MOH model [5]: efficacious
efficacy in human clinical trials [6]: efficacious

— patent US20200147059A1, “NEW THERAPEUTIC USES OF ENZYME INHIBITORS” (Proximagen, LLC, priority 2017, published 2020)
